In series [1] the target is T1, human δ opioid receptors (hDOR) (Homo sapiens, UniProt P41143).
T1 construct: expressed in transfected cells; host or cells: HN9.10 neuroblastoma cell line, pCDNA3, neomycin-selected clones
Put plainly: Radioligand competition binding, [3H]DPDPE, hDOR membranes. (In general: Loss of bound radioactivity is the signal in a displacement assay; it reports binding, not function.)

Series [2] has as its target T2, rat μ opioid receptors (rMOR) (Rattus norvegicus, UniProt P33535).
T2 construct: expressed in transfected cells; host or cells: HN9.10 neuroblastoma cell line, pCDNA3, neomycin-selected clones
Kind of series: biochemical. The class given is biochemical.

The nature of series [3]: Brain distribution, in situ perfusion model. The format is in vivo. The following applies: FIG. 20.
The next series addresses T3, rat NK1 (rNK1) receptor (Rattus norvegicus, UniProt P14600).
T3 construct: expressed in transfected cells; host or cells: CHO (rNK-1/CHO cell line from Dr. James Krause)
Kind of series: Radioligand competition binding, [3H]substance P, rNK1/CHO membranes. To be noted: for IC50: membranes from transfected CHO cells.

The target of series [4] is T2, rat μ opioid receptors (rMOR). Put plainly: Radioligand competition binding, [3H]DAMGO, rMOR membranes.
In another series the test system is μ opioid receptors (GPI). Put plainly: Guinea pig isolated ileum (GPI) assay, opioid agonist.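 Further: inhibition of electrically evoked contractions (0.1 Hz, 0.4 msec, supramaximal voltage) in organ baths at 37 °C, contraction height 3 min after each cumulative dose versus the 1 min before dosing.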
Series [5] concerns the target T1, human δ opioid receptors (hDOR). Put plainly: [35S]GTP-γ-S binding assay, hDOR. The class given is biochemical. In general terms: Binding of GTPγS marks nucleotide exchange on a G protein.
Series [6] concerns the target T4, human NK1 receptor (hNK1) (Homo sapiens, UniProt P25103).
T4 construct: expressed in transfected cells
Kind of series: Radioligand competition binding, [3H]-Substance P, hNK1.

Series [7] concerns the target T5, Substance P receptors (guinea pig NK1) (Cavia porcellus, UniProt P30547).
T5 construct: from tissue; host or cells: guinea pig (Hartley) ileum LMMP, 1 μM naloxone present
Put plainly: Guinea pig isolated ileum (GPI) assay with substance P stimulation in presence of 1 μM naloxone. The following applies: for Kb: Substance P antagonist, GPI, in the presence of 1 μM naloxone.

In another series the target is T6, δ opioid receptors (MVD) (Mus musculus, UniProt P32300).
T6 construct: from tissue; host or cells: mouse (ICR) isolated vas deferens
Put plainly: Mouse isolated vas deferens (MVD) assay, opioid agonist.

Series [8] can be described thus: Octanol/saline distribution (logD7.4). The format is physicochemical. To be noted: 0.05 N HEPES buffer in 0.1 N NaCl. The method, then:
HEPES buffer (0.05 M HEPES buffer in 0.1 M NaCl, pH 7.4, 500 μL) was added to 2 mg of compound and mixed with 500 μL of 1-octanol. The sample was shaken at r.t. for 12 h to allow equilibrating. The sample was centrifuged at 6500 rpm in a VanGuard V6500 (GlaxoSmithKline, Research Triangle Park, N.C.) for 15 min. The layers were separated and each layer was centrifuged once again. The compound concentrations of obtained layers were analyzed by HPLC (30-70% of acetonitrile containing 0.1% TFA within 20 min and up to 95% within additional 5 min, 1 mL/min, 230 nm, Vydac 218TP104 C-18 column). The logarithm of 1-octanol/saline distribution (logD7.4) was calculated as the ratio of compound concentration in the 1-octanol and saline phases.
Octanol/saline distribution (logD7.4) (Yamamoto, 2007, J. Med. Chem., submitted). HEPES buffer (0.05 M HEPES buffer in 0.1 M NaCl, pH 7.4, 500 μL) was added to 2 mg of compound and mixed with 500 μL of 1-octanol. The sample was shaken at r.t. for 12 h to allow equilibrating. The sample was centrifuged at 6500 rpm in a VanGuard V6500 (GlaxoSmithKline, Research Triangle Park, N.C.) for 15 min. The layers were separated and each layer was centrifuged once again. The compound concentrations in the obtained layers were analyzed by HPLC (30-70% of acetonitrile containing 0.1% TFA within 20 min and up to 95% within additional 5 min, 1 mL/min, 230 nm, Vydac 218TP104 C-18 column). The logarithm of 1-octanol/saline distribution (logD7.4) was calculated as the ratio of compound concentration in the 1-octanol and saline phases.

The next series in a line: FIG. 47. The method, then:
Table printed on a drawing sheet, FIG. 47
The patent's description of the figure: FIG. 47. Concentration of cyclic compounds in rat plasma after incubation at 37° C.

The target in a further series is rNK1 (Rattus norvegicus, UniProt P14600). The following applies: previous studies; read-out: Affinity (Ki in nM), rNK1; cited from earlier work.
A further series deals with MOR (Homo sapiens, UniProt P35372). The following applies: previous studies; read-out: Affinity (Ki in nM), MOR; cited from earlier work.
The target in a further series is DOR (Homo sapiens, UniProt P41143). To be noted: previous studies; read-out: Affinity (Ki in nM), DOR; cited from earlier work.
Where [9] appears, read: membranes from transfected HN9.10 cells.
Where [10] appears, read: Table 39, read-out: GPI/LMMP opioid(mu) agonist (IC50; nM).
Where [11] appears, read: electrically stimulated isolated tissue, read-out: GPI (μ), IC50.

Where two headings read alike, the source gives them in different places.

In general, Ki refers to a dissociation constant, usually derived from enzyme kinetics or from competition with a known ligand. In general, EC50 refers to the concentration at which the effect is half-maximal. One may read the Emax as the maximal effect, on the per cent scale that the assay sets. For orientation: Kb means the equilibrium dissociation constant of an antagonist, usually derived from a functional assay.

T1 sequence (P41143 whole entry): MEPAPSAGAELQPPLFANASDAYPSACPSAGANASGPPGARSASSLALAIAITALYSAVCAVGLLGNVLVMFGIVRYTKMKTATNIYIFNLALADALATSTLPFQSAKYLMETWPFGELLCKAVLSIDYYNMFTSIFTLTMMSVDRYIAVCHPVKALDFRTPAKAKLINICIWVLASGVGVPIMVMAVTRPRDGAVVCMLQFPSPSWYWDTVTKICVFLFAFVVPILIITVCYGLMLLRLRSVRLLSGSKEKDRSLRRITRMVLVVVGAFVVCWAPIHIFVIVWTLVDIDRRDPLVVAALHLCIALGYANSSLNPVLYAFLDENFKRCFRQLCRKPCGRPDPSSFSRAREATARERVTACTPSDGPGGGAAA
T3 sequence (P14600 whole entry): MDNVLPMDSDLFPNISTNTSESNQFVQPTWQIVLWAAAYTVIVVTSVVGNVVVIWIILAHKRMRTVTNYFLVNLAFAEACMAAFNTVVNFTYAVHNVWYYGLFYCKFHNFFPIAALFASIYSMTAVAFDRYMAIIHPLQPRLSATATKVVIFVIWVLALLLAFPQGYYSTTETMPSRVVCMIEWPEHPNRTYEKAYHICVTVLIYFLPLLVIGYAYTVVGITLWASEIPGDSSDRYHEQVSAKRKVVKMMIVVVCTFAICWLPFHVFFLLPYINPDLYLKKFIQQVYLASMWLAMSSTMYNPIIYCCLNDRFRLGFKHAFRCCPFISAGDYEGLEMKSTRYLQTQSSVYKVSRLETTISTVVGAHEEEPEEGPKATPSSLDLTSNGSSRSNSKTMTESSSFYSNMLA
Chain of rNK1 (P14600 whole entry): as above
T6 sequence (P32300 whole entry): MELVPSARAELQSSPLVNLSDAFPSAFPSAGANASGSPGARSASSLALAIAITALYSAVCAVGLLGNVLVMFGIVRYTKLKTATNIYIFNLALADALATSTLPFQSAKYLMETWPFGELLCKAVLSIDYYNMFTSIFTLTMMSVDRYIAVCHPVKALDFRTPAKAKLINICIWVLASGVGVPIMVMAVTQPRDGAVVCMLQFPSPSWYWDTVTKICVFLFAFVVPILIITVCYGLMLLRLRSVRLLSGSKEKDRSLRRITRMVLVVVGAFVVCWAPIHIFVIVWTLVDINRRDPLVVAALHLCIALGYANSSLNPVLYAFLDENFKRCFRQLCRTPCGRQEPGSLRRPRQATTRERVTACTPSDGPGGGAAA
Chain of MOR (P35372 whole entry): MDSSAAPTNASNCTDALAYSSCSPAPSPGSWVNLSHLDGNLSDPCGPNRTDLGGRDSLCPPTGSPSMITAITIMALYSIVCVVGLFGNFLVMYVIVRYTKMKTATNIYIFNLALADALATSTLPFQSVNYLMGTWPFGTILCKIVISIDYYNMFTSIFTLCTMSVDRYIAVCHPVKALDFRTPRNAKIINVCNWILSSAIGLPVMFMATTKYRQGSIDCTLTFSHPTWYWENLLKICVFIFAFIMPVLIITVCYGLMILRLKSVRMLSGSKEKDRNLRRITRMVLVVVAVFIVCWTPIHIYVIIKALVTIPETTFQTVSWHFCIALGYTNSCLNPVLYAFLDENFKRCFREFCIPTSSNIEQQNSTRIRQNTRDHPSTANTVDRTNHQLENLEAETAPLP
T4 sequence (P25103 whole entry): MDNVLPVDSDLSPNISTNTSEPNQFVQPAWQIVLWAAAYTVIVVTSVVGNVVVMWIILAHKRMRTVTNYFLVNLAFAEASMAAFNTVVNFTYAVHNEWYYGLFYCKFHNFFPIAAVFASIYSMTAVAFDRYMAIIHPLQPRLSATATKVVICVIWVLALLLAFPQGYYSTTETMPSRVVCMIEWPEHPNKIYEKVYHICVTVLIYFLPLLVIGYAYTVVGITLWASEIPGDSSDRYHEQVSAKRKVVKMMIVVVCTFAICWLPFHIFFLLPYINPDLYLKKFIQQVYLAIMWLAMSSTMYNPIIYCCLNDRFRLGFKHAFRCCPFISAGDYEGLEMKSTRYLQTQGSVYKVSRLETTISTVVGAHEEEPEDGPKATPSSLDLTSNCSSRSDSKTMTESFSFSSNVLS
T2 sequence (P33535 whole entry): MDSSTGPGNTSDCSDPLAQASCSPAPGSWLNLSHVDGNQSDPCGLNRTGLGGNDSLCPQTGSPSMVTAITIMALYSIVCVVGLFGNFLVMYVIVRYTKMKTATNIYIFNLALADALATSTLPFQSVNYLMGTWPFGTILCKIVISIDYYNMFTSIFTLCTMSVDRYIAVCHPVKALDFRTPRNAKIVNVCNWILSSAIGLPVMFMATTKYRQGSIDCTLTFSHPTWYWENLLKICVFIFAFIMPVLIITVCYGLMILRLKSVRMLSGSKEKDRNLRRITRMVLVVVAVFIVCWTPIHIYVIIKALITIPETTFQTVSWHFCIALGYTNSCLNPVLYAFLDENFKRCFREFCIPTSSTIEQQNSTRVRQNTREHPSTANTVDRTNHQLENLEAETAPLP
T5 sequence (P30547 whole entry): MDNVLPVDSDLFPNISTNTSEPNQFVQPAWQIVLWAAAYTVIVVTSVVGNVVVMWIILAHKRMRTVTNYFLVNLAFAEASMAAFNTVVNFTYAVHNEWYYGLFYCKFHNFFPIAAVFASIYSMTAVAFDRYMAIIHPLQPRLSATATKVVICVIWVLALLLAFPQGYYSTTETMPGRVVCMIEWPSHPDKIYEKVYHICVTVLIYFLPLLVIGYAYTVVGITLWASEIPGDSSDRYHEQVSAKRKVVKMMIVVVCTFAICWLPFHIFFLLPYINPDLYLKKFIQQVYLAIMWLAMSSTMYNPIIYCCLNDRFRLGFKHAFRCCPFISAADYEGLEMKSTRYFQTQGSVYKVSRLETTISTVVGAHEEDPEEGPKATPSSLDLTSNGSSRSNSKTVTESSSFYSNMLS
Chain of DOR (P41143 whole entry): as the sequence (P41143 whole entry) above

Turning to `CC(C)C[C@H](NC(=O)[C@@H]1CCCN1C(=O)[C@H](CC(C)C)NC(=O)[C@H](Cc1ccccc1)NC(=O)CNC(=O)[C@@H](C)NC(=O)[C@@H](N)Cc1ccc(O)cc1)C(=O)N[C@@H](Cc1c[nH]c2ccccc12)C(=O)OCc1cc(C(F)(F)F)cc(C(F)(F)F)c1` [TY004, H-Tyr-D-Ala-Gly-Phe-Leu-Pro-Leu-Trp-O-3,5-Bzl(CF3)2], the Ki in series [1] came to 23.3 nM; in series [1] (Table 27, read-out: Affinity hDOR (Ki; nM)), 5 nM; in [1] (Table 39, read-out: Affinity hDOR (Ki; nM)), 5 nM; in series [1] (read-out: Ki, hDOR, [3H]DPDPE), 5 nM; in series [4], 23.3 nM; in [6], 0.016 nM. In addition, the “δ selectivity over μ in binding assays” value in series [1] (Ki(μ)/Ki(δ)) was 4.7 fold. Also, the “Ki(μ)/Ki(δ)” value was found to be 4.7 in series [1] (binding, rMOR vs hDOR) and 3.4 in series [5]. In addition, the “LogIC50, hDOR, [3H]DPDPE” value in [1] (setting [9]) was −7.97 ± 0.07. In addition, the “LogEC50, rMOR, [35S]GTP-γ-S binding” value in series [2] is listed as −7.48 ± 0.16. The half-maximal effective concentration (EC50) in series [2] (GTP binding rMOR EC50) amounted to 39.8 nM; in [2] (read-out: EC50, rMOR, [35S]GTP-γ-S binding) it was 33 nM; in series [5] (Table 27, read-out: GTP binding hDOR EC50), 9.6 nM; in series [5] (Table 39, read-out: GTP binding hDOR EC50), 9.6 nM; in series [5] (read-out: EC50, hDOR, [35S]GTP-γ-S binding), 9.6 nM. Besides, the Emax in [2] (read-out: Emax, rMOR, [35S]GTP-γ-S binding) worked out at 46%; in series [2] (read-out: GTP binding rMOR Emax) it was 44.5%; in [2] (read-out: GTP binding rMOR Emax (%)), 44.5%; in [5] (Table 27, read-out: GTP binding hDOR Emax (%)), 42.5%; in series [5] (Table 39, read-out: GTP binding hDOR Emax), 42.5%; in series [5] (net total bound/basal binding × 100, read-out: Emax, hDOR, [35S]GTP-γ-S binding), 44%. Further, the “blood brain barrier penetration” value in series [3] is on record as “penetrate blood brain barrier”. Besides, the IC50 on rat NK1 (rNK1) receptor (IC50, rNK1, Substance P radioligand) was 20.9 nM; on rat NK1 (rNK1) receptor (LogIC50, rNK1, Substance P radioligand), 20 nM; with μ opioid receptors (GPI) (Table 28, read-out: GPI/LMMP Opioid(m) Agonist (IC50; nM)), 341 nM; in the series with μ opioid receptors (GPI) (setting [10]), 341 nM; with μ opioid receptors (GPI) (setting [11]), 341 ± 71 nM; in [7], 19.4 nM. Also, the IC50 at δ opioid receptors (MVD) worked out at 101 nM; on δ opioid receptors (MVD) (electrically stimulated isolated tissue, read-out: MVD (δ), IC50) it was 101 ± 25 nM. Besides, in [4] (setting [9]), the “LogIC50, rMOR, [3H]DAMGO” value is on record as −7.30 ± 0.07. In [5], the “LogEC50, hDOR, [35S]GTP-γ-S binding” value is recorded as −8.09 ± 0.18. Also, the “δ selectivity in [35S]GTP-γ-S binding assays” value in series [5] came out at 3.4 fold. In addition, the Kb in [7] (Ke) stood at 19.4 ± 5 nM. In addition, in [7] (Table 39, concentration not given), the “GPI/LMMP SP Agonist (IC50; nM)” value is listed as “none”. Besides, the activation at 1 µM in [7] (read-out: Substance P GPI agonist (A50), at 1 μM, contraction relative to initial muscle contraction with KCl) is 0%. In addition, the “δ selectivity in MVD and GPI assays” value at δ opioid receptors (MVD) is reported as 3.4 fold. In addition, the “IC50(MVD)/IC50(GPI)” value on δ opioid receptors (MVD) (Table 4) was found to be 3.4.

`CSCC[C@H](NC(=O)[C@H](Cc1ccccc1)NC(=O)CNC(=O)[C@@H](C)NC(=O)[C@@H](N)Cc1ccc(O)cc1)C(=O)N1CCC[C@H]1C(=O)N[C@@H](CC(C)C)C(=O)N[C@@H](Cc1c[nH]c2ccccc12)C(=O)NCc1ccccc1` [TY025, H-Tyr-D-Ala-Gly-Phe-Met-Pro-Leu-Trp-NH-Bzl]: in series [3], the “blood brain barrier penetration” value was “penetrate blood brain barrier”. On rat NK1 (rNK1) receptor (Table 39, read-out: Affinity rNK1 (Ki; nM)), the Ki came to 696 nM. Also, the IC50 came to 61.1 nM in the series on μ opioid receptors (GPI) (Table 30, read-out: GPI/LMMP Opioid(m) Agonist (IC50; nM)); 61.1 nM in the series on μ opioid receptors (GPI) (setting [10]); 61 nM in the series with μ opioid receptors (GPI) (setting [11]). The compound further had a logD7.4 in [8] of 3.6. The “LogEC50, hDOR” value in series [5] (Table 14, logarithm of EC50 (negative), HN9.10 cell) is listed as −8.6 ± 0.13. In addition, in series [6] (Ki rNK1 vs Ki hNK1), the “species difference between affinities at rNK1 and hNK1” value worked out at 220 fold. In addition, the Kb in series [7] (Ke (nM), Table 16) amounted to 9.9 ± 2.8 nM.

On to `CC(C)C[C@H](NC(=O)[C@@H]1CCCN1C(=O)[C@H]1NC(=O)[C@H](Cc2ccccc2)NC(=O)CNC(=O)[C@H](NC(=O)[C@@H](N)Cc2ccc(O)cc2)C(C)(C)SSC1(C)C)C(=O)N[C@@H](Cc1c[nH]c2ccccc12)C(=O)NCc1cc(C(F)(F)F)cc(C(F)(F)F)c1` [TY046], for which the figures for the Ki in series [4] and in [6] were 2330 nM and 0.0053 nM, respectively. Moreover, in “FIG. 47”, the T1/2 stood at 8.0 h. In addition, the Emax in series [5] (read-out: GTP binding hDOR Emax) and in series [5] (read-out: GTP binding hDOR Emax (%)) was 15% each time.

Regarding HTyrDAlaDPhePheDTrpLeuMetNH2 [JSOH9], the Ki at rNK1 is 2940 nM; at MOR, 606 nM; on DOR, 0.72 nM.

Take HTyrDAlaDTrpPheDTrpLeuLeuNH2 [JSOH11]: the Ki at rNK1 was 7320 nM; on MOR, 164 nM; at DOR it was 16.5 nM.

Turning to “HTyrProPhePheProLeuMetNH2 (H-YPFFPLM-NH2) [ESP6]”, the Ki in the series with rNK1 is 305 nM; in the series with MOR, 92 nM.

These data come from patent publication US8026218B2, “Bifunctional analgesic compounds for opioid receptor agonists and neurokinin-1 receptor antagonists” (The University of Arizona, priority 2006, dated 2011).
